In one data set the test system is Candida albicans. Briefly: Test of antibacterial activity in vitro (bacteria-inhibition zone). In kind it is cell-based. An excerpt:
(§1) Test of Antibacterial Activity In Vitro
(§2) Experiment drugs: the polyene diester compounds prepared by examples 1-12
(§3) Control drugs: amphotericin B (standard product) • mycostatin (standard product) • natamycin (standard product)
2.1 Preparation of Candida albicans suspension: PHARMACOPOEIA OF THE PEOPLES REPUBLIC OF CHINA, second part, 2005 edition, appendix p 81-84.
(§4) Taking appropriate amount of the above mentioned amphotericin B, mycostatin, natamycin and the polyene diester compounds prepared by examples 1-8 and 10-12, dissolving in a little dimethyl sulfoxide respectively, using pH7 phosphate buffer to dilute into solution which is equivalent to contain amphotericin B, mycostatin, natamycin 280 Units per milliliter, taking 1 ml and using pH7 phosphate buffer to quantitatively dilute into solution which is equivalent to contain amphotericin B 1.4 μg/ml and 2.8 μg/ml, and is equivalent to contain 5.6 μg/ml of mycostatin and natamycin.
(§5) In addition, preparing the solution according to the same method, adding 40% defibered sheep serum, using pH7 phosphate buffer to quantitatively dilute into unit solution which is equivalent to contain amphotericin B 1.4 μg/ml and 2.8 μg/ml, and is equivalent to contain 5.6 μg/ml of mycostatin and natamycin. Testing according to PHARMACOPOEIA OF THE PEOPLES REPUBLIC OF CHINA, second part, 2005 edition, appendix XIA The Antibiotics Microorganism Test.
(§6) Medium: Improved Martin Agar Medium, PHARMACOPOEIA OF THE PEOPLES REPUBLIC OF CHINA, second part, 2005 edition, appendix p 84.
Test method: Double-plate counting method; […] bacteria bed 15 ml to replace the double layers, culture temperature: 37° C., time: 24 h; strain concentration: 1% […]

A further data set relates to Saccharomyces cerevisiae. The description is as above. Format: cell-based.
Excerpt: as §1, §2, §3
2.2 Preparation of Saccharomyces cerevisiae suspension: PHARMACOPOEIA OF THE PEOPLES REPUBLIC OF CHINA, second part, 2005 edition, appendix p 80, p 83.
as §4, §5, §6
(§7) Test method: Double-plate counting method; […] bacteria bed 15 ml to replace the double layers, culture temperature: 37° C., time: 24 h; strain concentration: 1%
(§8) Medium: Modified Martin Broth Medium

The test system of another data set is Candida mycoderma. The description is as above. Format: cell-based.
Excerpt: as §1, §2, §3
2.3 Preparation of Candida mycoderrna suspension: the method is as same as preparation of Saccharomyces cerevisiae suspension
as §4, §5, §6, §7, §8

The test system of a further data set is esterase. Kind of data set: Test of esterase hydrolysis in sheep blood serum (HPLC). In kind it is in vitro ADME. The method, then:
Test of Esterase […]
Experiment drugs: the amphotericin B methyl pivalate prepared by example 1
Control drug: amphotericin B (standard product)
The stationary phase: Hypersil ODS2 5 um 4.6 mm×250 mm
The mobile phase: methanol: acetonitrile: EDTA-2Na (0.5 mmol)=60:20:20 flow rate: 1 ml/min
Detection system: ultraviolet detection, detection wavelength: 410 nm
Taking appropriate amount of the above mentioned amphotericin B, and amphotericin B methyl pivalate prepared by example 1, dissolving in a little dimethyl sulfoxide respectively, using pH7 phosphate buffer to dilute into solution which is equivalent to contain amphotericin B 280 Units per milliliter, taking 1 ml and using pH7 phosphate buffer to quantitatively dilute into solution which is equivalent to contain amphotericin B 2.8 μg/ml.
Again, preparing the solution according to the same method, adding 10% defibered sheep blood serum, using pH7 phosphate buffer to quantitatively dilute into solution which is equivalent to contain amphotericin B 2.8 μg/ml.
4. Mixing the amphotericin B methyl pivalate prepared by example 1 with sheep blood serum at 37° C. and culturing.
Referring to the test conditions of HPLC of example 25, wherein the mobile phase is acetonitrile: 0.05M ammonium acetate solution=60:40.

Where [1] appears, read: 5.6 μg/ml after conversion, no serum.
The mark [2] stands for this setting: 5.6 μg/ml after conversion, serum added (40% defibered sheep serum).
The mark [3] stands for this setting: 1.4 μg/ml after conversion, no serum.
[4] abbreviates: 1.4 μg/ml after conversion, serum added (40% defibered sheep serum).
[5] abbreviates: 2.8 μg/ml after conversion, no serum.
Where [6] appears, read: 2.8 μg/ml after conversion, serum added (40% defibered sheep serum).

Take Natamycin methyl pivalate: in the data set on Candida albicans (setting [1]), the “diameter of the bacteria-inhibition zone, Candida albicans 0 h” value was “+ (7-9 mm: +)”; the “diameter of the bacteria-inhibition zone, Candida albicans 6 h” value is on record as “+ (7-9 mm: +)”; the “diameter of the bacteria-inhibition zone, Candida albicans 24 h” value is on record as “+ (7-9 mm: +)”; the “diameter of the bacteria-inhibition zone, Candida albicans 48 h” value is on record as “+ (7-9 mm: +)”. In the data set with Candida albicans (setting [2]), the “diameter of the bacteria-inhibition zone, Candida albicans 0 h” value was “+ (7-9 mm: +)”; the “diameter of the bacteria-inhibition zone, Candida albicans 6 h” value was “++ (9-12 mm: ++)”; the “diameter of the bacteria-inhibition zone, Candida albicans 24 h” value is listed as “++ (9-12 mm: ++)”; the “diameter of the bacteria-inhibition zone, Candida albicans 48 h” value is listed as “++ (9-12 mm: ++)”. In the data set with Saccharomyces cerevisiae (setting [1]), the “diameter of the bacteria-inhibition zone, Saccharomyces cerevisiae 0 h” value is recorded as “+ (7-9 mm: +)”; the “diameter of the bacteria-inhibition zone, Saccharomyces cerevisiae 6 h” value is given as “+ (7-9 mm: +)”; the “diameter of the bacteria-inhibition zone, Saccharomyces cerevisiae 24 h” value is listed as “+ (7-9 mm: +)”; the “diameter of the bacteria-inhibition zone, Saccharomyces cerevisiae 48 h” value was “+ (7-9 mm: +)”. For the same substance, in the data set with Saccharomyces cerevisiae (setting [2]), the “diameter of the bacteria-inhibition zone, Saccharomyces cerevisiae 0 h” value is listed as “+ (7-9 mm: +)” and the “diameter of the bacteria-inhibition zone, Saccharomyces cerevisiae 6 h” value was “++ (9-12 mm: ++)”. In the data set with Candida mycoderma (setting [1]), the “diameter of the bacteria-inhibition zone, Candida mycoderma 0 h” value is “++ (9-12 mm: ++)”; the “diameter of the bacteria-inhibition zone, Candida mycoderma 6 h” value is listed as “++ (9-12 mm: ++)”; the “diameter of the bacteria-inhibition zone, Candida mycoderma 24 h” value is on record as “++ (9-12 mm: ++)”; the “diameter of the bacteria-inhibition zone, Candida mycoderma 48 h” value was “++ (9-12 mm: ++)”. Also, in the data set with Candida mycoderma (setting [2]), the “diameter of the bacteria-inhibition zone, Candida mycoderma 0 h” value was “++ (9-12 mm: ++)”.

For mycostatin methyl pivalate, in the data set with Candida albicans (setting [1]), the “diameter of the bacteria-inhibition zone, Candida albicans 0 h” value was “+ (7-9 mm: +)”; the “diameter of the bacteria-inhibition zone, Candida albicans 6 h” value was “+ (7-9 mm: +)”; the “diameter of the bacteria-inhibition zone, Candida albicans 24 h” value is reported as “+ (7-9 mm: +)”; the “diameter of the bacteria-inhibition zone, Candida albicans 48 h” value is listed as “+ (7-9 mm: +)”. In addition, in the data set with Candida albicans (setting [2]), the “diameter of the bacteria-inhibition zone, Candida albicans 0 h” value was “+ (7-9 mm: +)”; the “diameter of the bacteria-inhibition zone, Candida albicans 6 h” value is reported as “+ (7-9 mm: +)”; the “diameter of the bacteria-inhibition zone, Candida albicans 24 h” value is “+ (7-9 mm: +)”; the “diameter of the bacteria-inhibition zone, Candida albicans 48 h” value was “+ (7-9 mm: +)”. Moreover, in the data set with Saccharomyces cerevisiae (setting [1]), the “diameter of the bacteria-inhibition zone, Saccharomyces cerevisiae 0 h” value was “++ (9-12 mm: ++)”; the “diameter of the bacteria-inhibition zone, Saccharomyces cerevisiae 6 h” value is “++ (9-12 mm: ++)”; the “diameter of the bacteria-inhibition zone, Saccharomyces cerevisiae 24 h” value is reported as “++ (9-12 mm: ++)”; the “diameter of the bacteria-inhibition zone, Saccharomyces cerevisiae 48 h” value is listed as “++ (9-12 mm: ++)”. Besides, in the data set on Saccharomyces cerevisiae (setting [2]), the “diameter of the bacteria-inhibition zone, Saccharomyces cerevisiae 0 h” value was “+ (7-9 mm: +)” and the “diameter of the bacteria-inhibition zone, Saccharomyces cerevisiae 6 h” value was “++ (9-12 mm: ++)”. Also, in the data set with Candida mycoderma (setting [2]), the “diameter of the bacteria-inhibition zone, Candida mycoderma 0 h” value was “+ (7-9 mm: +)” and the “diameter of the bacteria-inhibition zone, Candida mycoderma 6 h” value was “++ (9-12 mm: ++)”.

As to amphotericin B methyl pivalate, in the data set with Candida albicans (setting [3]), the “diameter of the bacteria-inhibition zone, Candida albicans 0 h” value is on record as “+ (7-9 mm: +)”; the “diameter of the bacteria-inhibition zone, Candida albicans 6 h” value is listed as “+ (7-9 mm: +)”; the “diameter of the bacteria-inhibition zone, Candida albicans 24 h” value is reported as “+ (7-9 mm: +)”; the “diameter of the bacteria-inhibition zone, Candida albicans 48 h” value is listed as “+ (7-9 mm: +)”. In the data set on Candida albicans (setting [4]), the “diameter of the bacteria-inhibition zone, Candida albicans 0 h” value is on record as “+ (7-9 mm: +)” and the “diameter of the bacteria-inhibition zone, Candida albicans 6 h” value is “++ (9-12 mm: ++)”. Also, in the data set with Candida albicans (setting [5]), the “diameter of the bacteria-inhibition zone, Candida albicans 0 h” value is “++ (9-12 mm: ++)”; the “diameter of the bacteria-inhibition zone, Candida albicans 6 h” value was “++ (9-12 mm: ++)”; the “diameter of the bacteria-inhibition zone, Candida albicans 24 h” value is on record as “++ (9-12 mm: ++)”; the “diameter of the bacteria-inhibition zone, Candida albicans 48 h” value was “++ (9-12 mm: ++)”. Moreover, the “diameter of the bacteria-inhibition zone, Candida albicans 0 h” value in the data set with Candida albicans (setting [6]) is reported as “++ (9-12 mm: ++)”. Besides, in the data set with Saccharomyces cerevisiae (setting [3]), the “diameter of the bacteria-inhibition zone, Saccharomyces cerevisiae 0 h” value is recorded as “+ (7-9 mm: +)”; the “diameter of the bacteria-inhibition zone, Saccharomyces cerevisiae 6 h” value is “+ (7-9 mm: +)”; the “diameter of the bacteria-inhibition zone, Saccharomyces cerevisiae 24 h” value is recorded as “+ (7-9 mm: +)”; the “diameter of the bacteria-inhibition zone, Saccharomyces cerevisiae 48 h” value was “+ (7-9 mm: +)”. For the same substance, in the data set on Saccharomyces cerevisiae (setting [4]), the “diameter of the bacteria-inhibition zone, Saccharomyces cerevisiae 0 h” value was “+ (7-9 mm: +)”. In the data set with Saccharomyces cerevisiae (setting [5]), the “diameter of the bacteria-inhibition zone, Saccharomyces cerevisiae 0 h” value is recorded as “++ (9-12 mm: ++)”; the “diameter of the bacteria-inhibition zone, Saccharomyces cerevisiae 6 h” value is reported as “++ (9-12 mm: ++)”; the “diameter of the bacteria-inhibition zone, Saccharomyces cerevisiae 24 h” value is given as “++ (9-12 mm: ++)”; the “diameter of the bacteria-inhibition zone, Saccharomyces cerevisiae 48 h” value is given as “++ (9-12 mm: ++)”. In addition, in the data set on Saccharomyces cerevisiae (setting [6]), the “diameter of the bacteria-inhibition zone, Saccharomyces cerevisiae 0 h” value was “++ (9-12 mm: ++)”. Besides, in the data set with Candida mycoderma (setting [3]), the “diameter of the bacteria-inhibition zone, Candida mycoderma 0 h” value is reported as “+ (7-9 mm: +)”; the “diameter of the bacteria-inhibition zone, Candida mycoderma 6 h” value is “+ (7-9 mm: +)”; the “diameter of the bacteria-inhibition zone, Candida mycoderma 24 h” value is “+ (7-9 mm: +)”; the “diameter of the bacteria-inhibition zone, Candida mycoderma 48 h” value is listed as “+ (7-9 mm: +)”. In the data set with Candida mycoderma (setting [4]), the “diameter of the bacteria-inhibition zone, Candida mycoderma 0 h” value was “+ (7-9 mm: +)” and the “diameter of the bacteria-inhibition zone, Candida mycoderma 6 h” value was “++ (9-12 mm: ++)”. In the data set on Candida mycoderma (setting [5]), the “diameter of the bacteria-inhibition zone, Candida mycoderma 0 h” value is on record as “++ (9-12 mm: ++)”; the “diameter of the bacteria-inhibition zone, Candida mycoderma 6 h” value is “++ (9-12 mm: ++)”; the “diameter of the bacteria-inhibition zone, Candida mycoderma 24 h” value is listed as “++ (9-12 mm: ++)”; the “diameter of the bacteria-inhibition zone, Candida mycoderma 48 h” value is recorded as “++ (9-12 mm: ++)”. Moreover, the “diameter of the bacteria-inhibition zone, Candida mycoderma 0 h” value with Candida mycoderma (setting [6]) is “++ (9-12 mm: ++)”. For the same substance, the “hydrolysis by esterase to release the original drug, after 24 hours” value in the data set with esterase (10% defibered sheep blood serum, 37° C., 24 hours) is given as “most of the diester derivative is hydrolyzed by esterase to release amphotericin B”. For the same substance, in the data set on esterase (sheep blood serum, 37° C., 2, 6 and 24 hours), the “hydrolysis by esterase under sheep blood serum cultivation, release of the original drug” value was “gradually hydrolyzed by esterase”.

These data come from patent US8217013B2, “Polyene diester antibiotics” (priority 2007, dated 2012).
